Assay: Examination on stability: storage at 40° C. and 75% RH for 1 month, state of sample and composition changes
Assay type: physicochemical
Description: Samples 1-1 to 1-4 as shown below were prepared and stored at 40° C. and […] relative humidity (RH) for 1 month.
Pemafibrate as it was placed in a glass vessel with a lid opened, and labeled as Sample 1-1.
Aminoalkyl methacrylate copolymer E (EUDRAGIT EPO: Evonick Rohm GmbH) as it was placed in a glass vessel with a lid opened, and labeled as Sample 1-2.
Aminoalkyl methacrylate copolymer E (EUDRAGIT EPO: Evonick Rohm GmbH) was mixed with pemafibrate in a ratio of 1 part by mass to 1 part by mass of pemafibrate to obtain a mixture. The mixture was placed in a glass vessel with a lid opened, and labeled as Sample 1-3.
Aminoalkyl methacrylate copolymer E (EUDRAGIT EPO: Evonick Röhm GmbH) was mixed with pemafibrate in a ratio of 1 part by mass to 1 part by mass of pemafibrate to obtain a mixture. The mixture was taken in an amount of 0.25 g into a glass bottle (a bottle No. 2K, manufactured by ISOYA GLASS INDUSTRY) and closed with a lid, and labeled as Sample 1-4.

Compound: CC[C@@H](Oc1cccc(CN(CCCOc2ccc(OC)cc2)c2nc3ccccc3o2)c1)C(=O)O [Sample 1-1, (2R)-2-[3-([1,3-Benzoxazol-2-yl[3-(4-methoxyphenoxy)propyl]amino]methyl)phenoxy]butanoic acid]
- Change of state / presence or absence of composition changes after storage (1 month, start of storage compared with 1 month): maintained the same state
- State of mixture, 1 month later (after storage for 1 month, glass vessel with lid opened (1-1 to 1-3) or closed glass bottle (1-4)): White powder
- State of mixture, immediately after the start of storage (start of storage, glass vessel with lid opened (1-1 to 1-3) or closed glass bottle (1-4)): White powder

Source: patent publication US20220000786A1, “PHARMACEUTICAL PREPARATION” (KOWA COMPANY, LTD., priority 2018, published 2022)
